The kinase profiling compilation of Christmann-Franck et al. (2016)

Key:
Assay in all cases: KINOMEscan competition binding
Details in all cases: compound 10.0 µM
[1] = biological target: RPS6KA5 KD2 (human) (UniProt O75582)
[2] = biological target: CLK3 (human) (UniProt P49761)
[3] = biological target: CLK2 (human) (UniProt P49760)
[4] = biological target: JAK3 JH1 catalytic (human) (UniProt P52333)
[5] = biological target: NEK2 (human) (UniProt P51955)
[6] = biological target: MINK1 (human) (UniProt Q8N4C8)
[7] = biological target: MAP3K7 (human) (UniProt O43318)
[8] = biological target: PRKD1 (human) (UniProt Q15139)
[9] = biological target: FLT3 (human) (UniProt P36888)
[10] = biological target: MAP2K3 (human) (UniProt P46734)
[11] = biological target: CIT (human) (UniProt O14578)
[12] = biological target: CAMKK2 (human) (UniProt Q96RR4)
Sequence of CAMKK2 (human) (Q96RR4 whole entry, looked up): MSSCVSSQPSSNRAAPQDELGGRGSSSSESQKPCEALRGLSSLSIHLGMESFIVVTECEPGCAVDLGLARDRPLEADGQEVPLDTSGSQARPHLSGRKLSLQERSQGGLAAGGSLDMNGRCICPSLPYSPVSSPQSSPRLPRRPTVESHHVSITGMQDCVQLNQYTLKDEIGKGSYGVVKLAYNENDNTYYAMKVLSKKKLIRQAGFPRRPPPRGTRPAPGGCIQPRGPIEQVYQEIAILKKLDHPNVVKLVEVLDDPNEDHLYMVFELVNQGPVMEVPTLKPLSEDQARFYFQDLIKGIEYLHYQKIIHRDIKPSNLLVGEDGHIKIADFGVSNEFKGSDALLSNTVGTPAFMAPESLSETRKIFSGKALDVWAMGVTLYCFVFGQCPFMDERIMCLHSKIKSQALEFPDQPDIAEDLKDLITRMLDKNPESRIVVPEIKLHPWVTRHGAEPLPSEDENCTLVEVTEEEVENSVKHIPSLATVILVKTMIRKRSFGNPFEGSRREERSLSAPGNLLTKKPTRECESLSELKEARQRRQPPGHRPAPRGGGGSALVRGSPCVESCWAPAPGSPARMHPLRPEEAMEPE

[13] = tested on: FLT3 (human), P36888 [K663Q]
[14] = biological target: CSNK2A1 (human) (UniProt P68400)
[15] = biological target: MAPK15 (human) (UniProt Q8TD08)
Sequence of MAPK15 (human) (Q8TD08 whole entry, looked up): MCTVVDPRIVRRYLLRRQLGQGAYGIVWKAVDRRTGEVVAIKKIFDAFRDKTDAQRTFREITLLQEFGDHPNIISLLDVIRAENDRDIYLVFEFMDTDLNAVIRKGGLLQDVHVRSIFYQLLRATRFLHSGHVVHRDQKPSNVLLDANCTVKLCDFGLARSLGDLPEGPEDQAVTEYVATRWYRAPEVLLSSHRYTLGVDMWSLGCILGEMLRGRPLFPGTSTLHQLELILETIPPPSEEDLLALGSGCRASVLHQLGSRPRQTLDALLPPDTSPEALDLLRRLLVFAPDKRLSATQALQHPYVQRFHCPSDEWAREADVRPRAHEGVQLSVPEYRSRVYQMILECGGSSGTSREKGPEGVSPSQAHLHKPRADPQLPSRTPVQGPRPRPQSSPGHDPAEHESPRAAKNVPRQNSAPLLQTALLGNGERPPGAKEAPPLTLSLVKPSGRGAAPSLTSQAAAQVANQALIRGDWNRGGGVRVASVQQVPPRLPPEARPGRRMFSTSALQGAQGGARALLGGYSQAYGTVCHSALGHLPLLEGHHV

[16] = biological target: KIT (human) (UniProt P10721)
[17] = biological target: HIPK1 (human) (UniProt Q86Z02)
Sequence of HIPK1 (human) (Q86Z02 whole entry, looked up): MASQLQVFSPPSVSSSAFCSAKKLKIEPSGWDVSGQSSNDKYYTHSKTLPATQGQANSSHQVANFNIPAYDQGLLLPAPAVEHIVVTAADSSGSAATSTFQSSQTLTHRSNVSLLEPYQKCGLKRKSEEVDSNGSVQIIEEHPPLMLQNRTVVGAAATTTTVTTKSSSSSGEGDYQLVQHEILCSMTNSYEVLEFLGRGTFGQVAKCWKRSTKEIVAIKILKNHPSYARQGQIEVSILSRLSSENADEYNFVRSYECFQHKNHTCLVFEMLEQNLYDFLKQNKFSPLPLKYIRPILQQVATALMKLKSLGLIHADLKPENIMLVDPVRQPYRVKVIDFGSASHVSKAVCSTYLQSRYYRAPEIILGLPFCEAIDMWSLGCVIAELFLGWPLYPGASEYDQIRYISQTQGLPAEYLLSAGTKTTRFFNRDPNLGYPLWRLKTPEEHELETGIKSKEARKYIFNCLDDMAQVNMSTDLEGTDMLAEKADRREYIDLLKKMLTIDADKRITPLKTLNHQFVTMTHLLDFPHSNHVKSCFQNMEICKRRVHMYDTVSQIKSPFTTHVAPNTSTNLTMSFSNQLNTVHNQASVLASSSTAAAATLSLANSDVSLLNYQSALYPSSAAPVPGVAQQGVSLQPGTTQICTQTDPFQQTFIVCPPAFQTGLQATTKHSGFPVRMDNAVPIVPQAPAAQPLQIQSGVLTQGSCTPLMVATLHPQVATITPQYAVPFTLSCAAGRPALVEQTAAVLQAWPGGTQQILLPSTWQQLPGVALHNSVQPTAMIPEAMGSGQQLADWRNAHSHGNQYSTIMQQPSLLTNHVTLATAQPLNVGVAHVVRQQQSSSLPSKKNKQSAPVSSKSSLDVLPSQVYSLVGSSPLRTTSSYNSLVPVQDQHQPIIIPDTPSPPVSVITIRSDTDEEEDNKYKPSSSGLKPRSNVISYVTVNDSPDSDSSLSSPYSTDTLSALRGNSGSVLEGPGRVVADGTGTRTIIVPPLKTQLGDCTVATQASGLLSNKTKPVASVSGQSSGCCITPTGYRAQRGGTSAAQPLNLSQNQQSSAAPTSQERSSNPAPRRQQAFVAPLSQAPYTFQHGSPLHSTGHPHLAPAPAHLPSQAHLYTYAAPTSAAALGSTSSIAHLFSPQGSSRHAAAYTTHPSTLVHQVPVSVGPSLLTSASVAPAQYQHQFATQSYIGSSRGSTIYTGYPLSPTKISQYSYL

[18] = biological target: STK17B (human) (UniProt O94768)
[19] = biological target: DAPK1 (human) (UniProt P53355)
Sequence of DAPK1 (human) (P53355 whole entry, looked up): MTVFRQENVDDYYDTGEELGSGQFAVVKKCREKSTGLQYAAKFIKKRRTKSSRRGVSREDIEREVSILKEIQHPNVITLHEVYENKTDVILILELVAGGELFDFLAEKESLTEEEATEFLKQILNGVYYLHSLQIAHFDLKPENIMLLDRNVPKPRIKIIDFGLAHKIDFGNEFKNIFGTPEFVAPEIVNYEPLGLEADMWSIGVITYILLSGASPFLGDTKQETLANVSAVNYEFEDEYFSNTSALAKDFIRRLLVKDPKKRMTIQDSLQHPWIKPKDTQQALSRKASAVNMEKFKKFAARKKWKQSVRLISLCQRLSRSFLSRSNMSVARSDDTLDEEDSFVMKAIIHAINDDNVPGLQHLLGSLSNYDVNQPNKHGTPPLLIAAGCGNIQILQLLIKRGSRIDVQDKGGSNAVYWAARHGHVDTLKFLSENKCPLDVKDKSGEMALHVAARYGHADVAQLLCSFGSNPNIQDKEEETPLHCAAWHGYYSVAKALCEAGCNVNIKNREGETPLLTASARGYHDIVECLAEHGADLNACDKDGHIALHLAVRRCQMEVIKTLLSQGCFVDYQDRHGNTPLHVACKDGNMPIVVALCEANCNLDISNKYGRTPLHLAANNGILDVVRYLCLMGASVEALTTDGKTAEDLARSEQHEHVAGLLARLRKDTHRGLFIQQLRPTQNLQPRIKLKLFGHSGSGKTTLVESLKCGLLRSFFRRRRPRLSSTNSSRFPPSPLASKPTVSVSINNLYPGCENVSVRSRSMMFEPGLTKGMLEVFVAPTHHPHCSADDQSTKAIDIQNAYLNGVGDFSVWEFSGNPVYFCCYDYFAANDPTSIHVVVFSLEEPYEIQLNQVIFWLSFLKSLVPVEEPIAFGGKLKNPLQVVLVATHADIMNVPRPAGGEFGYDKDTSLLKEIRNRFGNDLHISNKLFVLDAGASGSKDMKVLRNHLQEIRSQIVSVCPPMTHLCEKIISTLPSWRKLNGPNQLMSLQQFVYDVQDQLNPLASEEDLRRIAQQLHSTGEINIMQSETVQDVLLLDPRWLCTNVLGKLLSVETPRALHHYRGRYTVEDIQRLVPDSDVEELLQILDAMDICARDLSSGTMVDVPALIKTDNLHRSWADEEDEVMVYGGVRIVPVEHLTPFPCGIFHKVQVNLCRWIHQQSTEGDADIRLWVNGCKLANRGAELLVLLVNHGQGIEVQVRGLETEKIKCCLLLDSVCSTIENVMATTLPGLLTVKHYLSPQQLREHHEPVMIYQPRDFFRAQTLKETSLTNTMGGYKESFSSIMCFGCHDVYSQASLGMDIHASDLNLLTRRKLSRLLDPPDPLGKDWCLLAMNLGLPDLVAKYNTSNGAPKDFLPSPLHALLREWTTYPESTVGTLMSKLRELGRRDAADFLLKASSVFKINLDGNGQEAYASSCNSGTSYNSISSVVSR

[20] = biological target: CDK7 (human) (UniProt P50613)
[21] = biological target: PIM1 (human) (UniProt P11309)
Sequence of PIM1 (human) (P11309 whole entry, looked up): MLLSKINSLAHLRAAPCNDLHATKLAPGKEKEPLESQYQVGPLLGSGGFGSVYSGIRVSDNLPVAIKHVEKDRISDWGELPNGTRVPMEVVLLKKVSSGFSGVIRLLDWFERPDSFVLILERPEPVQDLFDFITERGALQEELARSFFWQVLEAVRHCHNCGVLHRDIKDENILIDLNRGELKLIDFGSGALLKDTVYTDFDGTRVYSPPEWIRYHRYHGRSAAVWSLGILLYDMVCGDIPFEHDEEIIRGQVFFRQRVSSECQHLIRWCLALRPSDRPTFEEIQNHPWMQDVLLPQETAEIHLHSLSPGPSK

[22] = biological target: RIOK1 (human) (UniProt Q9BRS2)
[23] = biological target: RPS6KA4 KD2 (human) (UniProt O75676)
[24] = tested on: KIT (human), P10721 [D816V]
[25] = biological target: RIOK2 (human) (UniProt Q9BVS4)
[26] = biological target: ACVR2A (human) (UniProt P27037)
[27] = tested on: KIT (human), P10721 [V559D/T670I]
[28] = biological target: CAMKK1 (human) (UniProt Q8N5S9)
[29] = biological target: GAK (human) (UniProt O14976)
[30] = biological target: DCLK3 (human) (UniProt Q9C098)
[31] = biological target: MKNK1 (human) (UniProt Q9BUB5)
[32] = biological target: TYK2 JH2 pseudokinase (human) (UniProt P29597)
[33] = biological target: RIPK4 (human) (UniProt P57078)
Sequence of RIPK4 (human) (P57078 whole entry, looked up): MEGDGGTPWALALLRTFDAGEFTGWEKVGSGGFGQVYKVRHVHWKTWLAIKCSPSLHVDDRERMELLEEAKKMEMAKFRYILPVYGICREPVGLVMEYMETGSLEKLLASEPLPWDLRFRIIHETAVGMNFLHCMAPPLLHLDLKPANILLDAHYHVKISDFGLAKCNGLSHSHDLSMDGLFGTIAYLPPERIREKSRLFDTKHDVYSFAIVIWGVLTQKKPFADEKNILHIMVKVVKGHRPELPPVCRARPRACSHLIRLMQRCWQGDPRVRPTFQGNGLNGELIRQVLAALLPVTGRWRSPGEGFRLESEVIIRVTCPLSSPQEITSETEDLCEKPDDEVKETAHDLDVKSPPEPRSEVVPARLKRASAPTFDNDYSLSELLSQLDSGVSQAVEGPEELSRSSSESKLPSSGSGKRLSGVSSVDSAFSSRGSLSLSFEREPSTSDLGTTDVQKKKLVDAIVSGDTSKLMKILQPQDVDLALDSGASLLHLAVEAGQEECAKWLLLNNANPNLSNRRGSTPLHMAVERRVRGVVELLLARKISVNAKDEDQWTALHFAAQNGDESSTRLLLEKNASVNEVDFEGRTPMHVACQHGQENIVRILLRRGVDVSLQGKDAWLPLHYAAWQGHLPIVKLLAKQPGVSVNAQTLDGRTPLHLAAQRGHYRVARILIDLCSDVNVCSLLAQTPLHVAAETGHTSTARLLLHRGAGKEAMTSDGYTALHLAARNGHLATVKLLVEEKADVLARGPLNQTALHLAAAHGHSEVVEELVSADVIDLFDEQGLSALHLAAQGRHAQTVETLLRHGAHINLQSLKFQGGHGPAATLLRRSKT

[34] = biological target: PIK3CG (human) (UniProt P48736)
[35] = biological target: ULK2 (human) (UniProt Q8IYT8)
[36] = biological target: RPS6KA1 KD2 (human) (UniProt Q15418)
[37] = biological target: JAK1 JH2 pseudokinase (human) (UniProt P23458)
[38] = biological target: MKNK2 (human) (UniProt Q9HBH9)
[39] = biological target: AURKC (human) (UniProt Q9UQB9)
[40] = biological target: CSNK1E (human) (UniProt P49674)
[41] = biological target: MYLK (human) (UniProt Q15746)

Q: How did the kinase still bound, per cent of control [1] turn out when `CS(=O)(=O)Nc1ccc(-c2cc(/C=C3\SC(=N)NC3=O)c[nH]c2=O)cc1` was run?
A: 0.15%

Q: What about the kinase still bound, per cent of control [2] of the same molecule?
A: 2.4%

Q: And the kinase still bound, per cent of control [3]?
A: 5.2%

Q: What about the kinase still bound, per cent of control [4] of the same molecule?
A: 29%

Q: What about the kinase still bound, per cent of control [5] of the same molecule?
A: 19%

Q: What about the kinase still bound, per cent of control [6] of the same molecule?
A: 15%

Q: What about the kinase still bound, per cent of control [7] of the same molecule?
A: 18%

Q: What about the kinase still bound, per cent of control [8] of the same molecule?
A: 15%

Q: What about the kinase still bound, per cent of control [9] of the same molecule?
A: 8.6%

Q: What about the kinase still bound, per cent of control [10] of the same molecule?
A: 10%

Q: And the kinase still bound, per cent of control [11]?
A: 23%

Q: And the kinase still bound, per cent of control [12]?
A: 31%

Q: And the kinase still bound, per cent of control [13]?
A: 13%

Q: And the kinase still bound, per cent of control [14]?
A: 4.8%

Q: And the kinase still bound, per cent of control [15]?
A: 0.1%

Q: And the kinase still bound, per cent of control [16]?
A: 22%

Q: What about the kinase still bound, per cent of control [17] of the same molecule?
A: 0.5%

Q: What about the kinase still bound, per cent of control [18] of the same molecule?
A: 31%

Q: And the kinase still bound, per cent of control [19]?
A: 6.4%

Q: And the kinase still bound, per cent of control [20]?
A: 26%

Q: What about the kinase still bound, per cent of control [21] of the same molecule?
A: 9.5%

Q: What about the kinase still bound, per cent of control [22] of the same molecule?
A: 11%

Q: What about the kinase still bound, per cent of control [23] of the same molecule?
A: 0.35%

Q: What about the kinase still bound, per cent of control [24] of the same molecule?
A: 19%

Q: What about the kinase still bound, per cent of control [25] of the same molecule?
A: 33%

Q: And the kinase still bound, per cent of control [26]?
A: 6.6%

Q: What about the kinase still bound, per cent of control [27] of the same molecule?
A: 32%

Q: What about the kinase still bound, per cent of control [28] of the same molecule?
A: 33%

Q: With `N=C1NC(=O)/C(=C/c2ccc(-c3ccc(C(N)=O)cc3O)o2)S1` as the molecule, how does the kinase still bound, per cent of control [2] read?
A: 4.2%

Q: What about the kinase still bound, per cent of control [3] of the same molecule?
A: 19%

Q: And the kinase still bound, per cent of control [4]?
A: 32%

Q: What about the kinase still bound, per cent of control [11] of the same molecule?
A: 19%

Q: And the kinase still bound, per cent of control [12]?
A: 33%

Q: And the kinase still bound, per cent of control [29]?
A: 6.6%

Q: And the kinase still bound, per cent of control [14]?
A: 5.8%

Q: What about the kinase still bound, per cent of control [15] of the same molecule?
A: 0.1%

Q: What about the kinase still bound, per cent of control [17] of the same molecule?
A: 0.35%

Q: And the kinase still bound, per cent of control [18]?
A: 1.5%

Q: What about the kinase still bound, per cent of control [30] of the same molecule?
A: 2.7%

Q: And the kinase still bound, per cent of control [19]?
A: 9.7%

Q: And the kinase still bound, per cent of control [20]?
A: 1%

Q: What about the kinase still bound, per cent of control [21] of the same molecule?
A: 3%

Q: What about the kinase still bound, per cent of control [31] of the same molecule?
A: 13%

Q: What about the kinase still bound, per cent of control [23] of the same molecule?
A: 0.75%

Q: What about the kinase still bound, per cent of control [32] of the same molecule?
A: 0.25%

Q: And the kinase still bound, per cent of control [28]?
A: 16%

Q: What about the kinase still bound, per cent of control [33] of the same molecule?
A: 7.9%

Q: And the kinase still bound, per cent of control [34]?
A: 2.6%

Q: How did the kinase still bound, per cent of control [1] turn out when `N=C1NC(=O)/C(=C/c2ccc(-c3ccc(F)cc3O)o2)S1` was run?
A: 24%

Q: And the kinase still bound, per cent of control [2]?
A: 11%

Q: What about the kinase still bound, per cent of control [3] of the same molecule?
A: 2.8%

Q: And the kinase still bound, per cent of control [4]?
A: 26%

Q: What about the kinase still bound, per cent of control [6] of the same molecule?
A: 24%

Q: What about the kinase still bound, per cent of control [8] of the same molecule?
A: 32%

Q: What about the kinase still bound, per cent of control [10] of the same molecule?
A: 3.2%

Q: And the kinase still bound, per cent of control [11]?
A: 33%

Q: And the kinase still bound, per cent of control [12]?
A: 22%

Q: And the kinase still bound, per cent of control [29]?
A: 7.6%

Q: And the kinase still bound, per cent of control [15]?
A: 0.1%

Q: What about the kinase still bound, per cent of control [17] of the same molecule?
A: 0.15%

Q: What about the kinase still bound, per cent of control [18] of the same molecule?
A: 2.9%

Q: What about the kinase still bound, per cent of control [30] of the same molecule?
A: 1%

Q: What about the kinase still bound, per cent of control [19] of the same molecule?
A: 8.3%

Q: What about the kinase still bound, per cent of control [20] of the same molecule?
A: 0.95%

Q: And the kinase still bound, per cent of control [21]?
A: 3.8%

Q: What about the kinase still bound, per cent of control [22] of the same molecule?
A: 23%

Q: And the kinase still bound, per cent of control [31]?
A: 15%

Q: What about the kinase still bound, per cent of control [23] of the same molecule?
A: 1.8%

Q: And the kinase still bound, per cent of control [35]?
A: 14%

Q: What about the kinase still bound, per cent of control [32] of the same molecule?
A: 31%

Q: And the kinase still bound, per cent of control [28]?
A: 14%

Q: What about the kinase still bound, per cent of control [33] of the same molecule?
A: 4.2%

Q: What about the kinase still bound, per cent of control [34] of the same molecule?
A: 0%

Q: Which results are given for `CN1C(=O)[C@H]2CCC[C@H]2N(C2CCCC2)c2nc(Nc3ccc(C(N)=O)cc3)ncc21`?
A: kinase still bound, per cent of control [3]: 1%; kinase still bound, per cent of control [4]: 32%; kinase still bound, per cent of control [5]: 13%; kinase still bound, per cent of control [36]: 7.6%; kinase still bound, per cent of control [6]: 1.8%; kinase still bound, per cent of control [7]: 3.4%; kinase still bound, per cent of control [9]: 19%; kinase still bound, per cent of control [11]: 28%; kinase still bound, per cent of control [12]: 33%; kinase still bound, per cent of control [37]: 9.2%; kinase still bound, per cent of control [29]: 15%; kinase still bound, per cent of control [13]: 14%; kinase still bound, per cent of control [14]: 25%; kinase still bound, per cent of control [15]: 18%; kinase still bound, per cent of control [18]: 0.2%; kinase still bound, per cent of control [30]: 1.4%; kinase still bound, per cent of control [38]: 16%; kinase still bound, per cent of control [39]: 2.2%; kinase still bound, per cent of control [19]: 3.2%; kinase still bound, per cent of control [20]: 3.7%; kinase still bound, per cent of control [21]: 6.8%; kinase still bound, per cent of control [22]: 26%; kinase still bound, per cent of control [23]: 0.55%; kinase still bound, per cent of control [25]: 6%; kinase still bound, per cent of control [35]: 17%; kinase still bound, per cent of control [40]: 21%; kinase still bound, per cent of control [32]: 15%; kinase still bound, per cent of control [33]: 30%; kinase still bound, per cent of control [41]: 23%; kinase still bound, per cent of control [34]: 11%
